Assay results published in article PMC2362735, “New semisynthetic vinca alkaloids: chemical, biochemical and cellular studies” (British Journal of Cancer, 1999).
Like-named read-outs stand apart in the source and are kept apart here.

Experiments:
[1] = target: T1, calmodulin (Bos taurus, UniProt P62157); design: method as in Molnar et al (1995); conditions: ref Molnar et al (1995); cited from earlier work
T1 construct: Calmodulin from bovine brain was purified to homogeneity using Phenyl-Sepharose (Pharmacia) chromatography; from tissue; host or cells: bovine brain

[2] = system: tubulin/microtubule, PFK-bundled microtubules; test: Tubulin polymerization with or without PFK (bundled vs single microtubules): turbidity and pelleting with SDS-PAGE; type: biochemical, calf; conditions: 10 M tubulin, 2 M drug, 20 µM taxol, SDS-PAGE of supernatant and pellet
From the text: The numerous antimitotic drugs already developed and therapeu- tically used for a large number of pathologies belong to different classes based on their chemical structure and other distinctive features. Antimitotic drugs usually target the tubulin/microtubule network of the cytoskeleton that is formed by assembly of cyto- plasmic tubulin dimers. The stability of the different microtubular structures varies considerably; some of their functions depend on their lability. The lability is augmented by the extreme sensitivity to various drugs. Several synthetic and natural compounds interact specifically with tubulin and/or microtubule, fundamentally destroying its dynamic character and leading to cell death. […] Because of their extensive clinical use, it is important to synthesize additional agents having at least the same biological activity. […] Nevertheless, it is unclear yet how the anti-calmodulin activity of these drugs is related to their desired and undesired pharmacological effects. […] The synthesis of the KAR derivatives are presented. […] Taxol, GTP and trifluoperazine were purchased from Sigma. All organic reagents for synthesis of the new compounds were obtained from Aldrich and were of the highest grade. All other chemicals were reagent grade commercial preparations. […] Tubulin was stored in 1 M sucrose, 10 mM sodium phosphate buffer, 0.5 mM magnesium chloride and 0.1 mM GTP, pH 7.0, at -80C and dialysed against the appropriate buffer before use. […] PFK, aldolase and glycerol-3-phosphate dehydrogenase- triosephosphate isomerase purified from rabbit skeletal muscle were purchased in ammonium sulphate suspensions from Sigma or Boehringer. The enzyme suspensions were centrifuged at 10 000g for 5 min. The pellets were suspended in the appropriate buffer, then the enzymes were gel filtered or dialysed in the same buffer to remove ammonium sulphate. […] (Figure 1B; R1 , CH3; R2 , CH2 CH2 Cl). […] After 2 h incubation at room temperature, 200 ml dried toluene was added to the reaction mixture. […] The mixture was stirred for 30 min. After separation of the organic phase, it was washed with water (3 x 30 ml) and dried with potassium sulphate and evaporated on a water bath of 35-40C at 20-27 hPa. The resulting material was chromatographed on silica gel (500 g, bead size of 0.040- 0.063 mm) column (30 mm x 500 mm) using ethyl acetate/ethanol (9:1) mixture as eluent. […] The mixture was kept for 4 h at room temperature and then evaporated on a water bath at 40C under a vacuum of 80 hPa to a final volume of 5-6 ml. […] (Figure 1B, R1 , CHO; R2 , CH2 CH2 Cl). […] Synthesis of KAR-4 [3-allyl-2,4-dioxo-3,5-spiro-oxazolidino- 4-deacetoxy-vinblastine] (Figure 1B; R1 , CH3; R2 , CH2 CH=CH2 ). […] NMR measurements were carried out on a Varian Unity plus-500 instrument (500 MHz for 1H and 125 MHz for 13C) in DMSO. Chemical shifts were determined relative to dTMS = 0.00 p.p.m. 1H and 13C signal assignments were verified by a concerted use of two-dimensional 1H-1H and 1H-13C shift correlation methods (DQFCOSY, HSQC, HMBC) and NOESY experiments. The gradient-enhanced DQFCOSY, HSQC, HMBC and NOESY experiments were recorded by using the standard spectrometer software package. A mixing time of tmix = 0.5 s was used for the NOESY experiments. […] Mass spectrum was recorded on a Kratos MS 80 instrument using FAB.

[3] = system: tubulin; test: Taxol-induced tubulin polymerization, turbidity at 350 nm; type: biochemical, calf; conditions: taxol-induced assembly, MES buffer pH 6.8, 37C; average of three independent measurements; read-out: Anti-tubulin effect, turbidity at 350 nm, IC50
From the text: (§1) The numerous antimitotic drugs already developed and therapeu- tically used for a large number of pathologies belong to different classes based on their chemical structure and other distinctive features. Antimitotic drugs usually target the tubulin/microtubule network of the cytoskeleton that is formed by assembly of cyto- plasmic tubulin dimers. The stability of the different microtubular structures varies considerably; some of their functions depend on their lability. The lability is augmented by the extreme sensitivity to various drugs. Several synthetic and natural compounds interact specifically with tubulin and/or microtubule, fundamentally destroying its dynamic character and leading to cell death. […] Because of their extensive clinical use, it is important to synthesize additional agents having at least the same biological activity. […] Nevertheless, it is unclear yet how the anti-calmodulin activity of these drugs is related to their desired and undesired pharmacological effects. […] The synthesis of the KAR derivatives are presented. […] Taxol, GTP and trifluoperazine were purchased from Sigma. All organic reagents for synthesis of the new compounds were obtained from Aldrich and were of the highest grade. All other chemicals were reagent grade commercial preparations. […] Tubulin was stored in 1 M sucrose, 10 mM sodium phosphate buffer, 0.5 mM magnesium chloride and 0.1 mM GTP, pH 7.0, at -80C and dialysed against the appropriate buffer before use. […] PFK, aldolase and glycerol-3-phosphate dehydrogenase- triosephosphate isomerase purified from rabbit skeletal muscle were purchased in ammonium sulphate suspensions from Sigma or Boehringer. The enzyme suspensions were centrifuged at 10 000g for 5 min. The pellets were suspended in the appropriate buffer, then the enzymes were gel filtered or dialysed in the same buffer to remove ammonium sulphate. […] (Figure 1B; R1 , CH3; R2 , CH2 CH2 Cl). […] After 2 h incubation at room temperature, 200 ml dried toluene was added to the reaction mixture. […] The mixture was stirred for 30 min. After separation of the organic phase, it was washed with water (3 x 30 ml) and dried with potassium sulphate and evaporated on a water bath of 35-40C at 20-27 hPa. The resulting material was chromatographed on silica gel (500 g, bead size of 0.040- 0.063 mm) column (30 mm x 500 mm) using ethyl acetate/ethanol (9:1) mixture as eluent. […] The mixture was kept for 4 h at room temperature and then evaporated on a water bath at 40C under a vacuum of 80 hPa to a final volume of 5-6 ml. […] (Figure 1B, R1 , CHO; R2 , CH2 CH2 Cl). […] Synthesis of KAR-4 [3-allyl-2,4-dioxo-3,5-spiro-oxazolidino- 4-deacetoxy-vinblastine] (Figure 1B; R1 , CH3; R2 , CH2 CH=CH2 ). […] NMR measurements were carried out on a Varian Unity plus-500 instrument (500 MHz for 1H and 125 MHz for 13C) in DMSO. Chemical shifts were determined relative to dTMS = 0.00 p.p.m. 1H and 13C signal assignments were verified by a concerted use of two-dimensional 1H-1H and 1H-13C shift correlation methods (DQFCOSY, HSQC, HMBC) and NOESY experiments. The gradient-enhanced DQFCOSY, HSQC, HMBC and NOESY experiments were recorded by using the standard spectrometer software package. A mixing time of tmix = 0.5 s was used for the NOESY experiments.

[4] = system: mouse leukaemia P388; design: method as in Orosz et al, 1997a; conditions: P388, 0.2 mg kg-1, eightfold treatment; ref Orosz et al, 1997a; cited from earlier work
[5] = system: Human neuroblastoma cell line (SH-SY5Y); test: Microculture tetrazolium assay (MTA), cytotoxicity; conditions: Homo sapiens, 96 h
From the text: as §1

Q: Which “Anti-calmodulin activity: Efficiency (%)” value [1] does the source give for `CC[C@]1(O)C[C@@H]2CN(CCc3c([nH]c4ccccc34)[C@@](C(=O)OC)(c3cc4c(cc3OC)N(C)[C@H]3[C@@](O)(C(=O)OC)[C@H](OC(C)=O)[C@]5(CC)C=CCN6CC[C@]43[C@@H]65)C2)C1` [Vinblastine, vinblastine, reference compound] here?
A: 61%

Q: And the “tubulin partition in pelleting experiment, without PFK” value ([2]; no PFK)?
A: practically all tubulin appears in the super- natants

Q: And the “tubulin partition in pelleting experiment, with PFK (bundled microtubules)” value ([2]; 2 M PFK)?
A: significant amount of tubulins were assembled into microtubules

Q: And the T/C [4]?
A: 199%

Q: And the IC50 ([5]; read-out: Cytotoxicity MTA IC50)?
A: 5e-09 M

Q: And the IC50 ([5]; read-out: Cytotoxicity MTA IC50 (M))?
A: 5e-09 M
